Common to all, as to assay type: cell-based
For assay [1], the system named is AKT1 (AKT serine/threonine kinase 1). Kind of assay: Gene expression experiment (real-time PCR) in SH-SY5Y cells: AKT1. The settings on record: 12.56 μM, amyloid β protein-treated cells, 24 h; compared to “Aβ”. Here is the method:
(§1) SH-SY5Y cells were seeded in 100 mm-cell dishes (BD Biocoat) at concentrations of 3.7×10^5 cells/mL (10 mL/dish) and cultured for 24 h at 37° C. and 5% CO2. Culture medium used was F12/DMEM (Gibco) supplemented with 1% non-essential amino acids (Gibco), 15% FBS (Bio West), and 1% penicillin/streptomycin (Lonza). After 24 h, the culture medium was completely removed with an aspirator, 10 mL of culture medium Opti-MEM(Gibco) was added to each dish, and the cells were cultured for 24 h at 37° C. and 5% CO2. RNA was extracted from the culture cells and analyzed for the expression of genes described below by real-time PCR (designated as “Control” in FIGS. 2 to 8).
(§2) RNA extraction was performed using ISOGEN Reagent (Nippon Gene Co., Ltd.) in accordance with the protocol recommended by Nippo n Gene Co., Ltd. (see URL: https://www.nippongene.com/siyaku/product/extraction/tds/tds_isogen-rna-dna-protein.pdf). Real-time PCR was performed according to the protocol recommended by Thermo Fisher Scientific using a reagent kit for TaqMan Real-Time PCR (Thermo Fisher Scientific) (see URL: https://assets.thermofisher.com/TFS-Assets/LSG/manuals/4304449_TaqManPCRMM_UG.pdf).
(§3) 24 h after seeding 100 mm-cell dishes (BD Biocoat) with SH-SY5Y cells, the culture medium was completely removed with an aspirator, amyloid β protein (Beta-Amyloid 1-42, AnaSpec) was mixed with Opti-MEM (Gibco) so that the final concentration was 5 μM, 10 mL of the mixture was added to each dish, the cells were cultured for 24 h at 37° C. and 5% CO2, and RNA was extracted. Except for performing the procedure described above, gene expression was analyzed as described above (designated as “Aβ” in FIGS. 2 to 8).
(§4) 24 h after seeding 100 mm-cell dishes (BD Biocoat) with SH-SY5Y cells, the culture medium was completely removed with an aspirator, Sample 1 was mixed with culture medium Opti-MEM(Gibco) so that the final concentration was 12.56 μM, 9,990 μL of the mixture was added to each dish and allowed to stand for 10 min, amyloid β protein (Beta-Amyloid 1-42, AnaSpec) was mixed with Opti-MEM (Gibco) so that the final concentration was […], 10 μL of the mixture was added to each well, the cells were cultured for 24 h at 37° C. and 5% CO2, and RNA was extracted. Except for performing the procedure described above, Gene expression was analyzed as described above (designated as “Aβ+M3,5G” in FIGS. 2 to 8).
(§5) Except that Sample 2 was used instead of Sample 1, gene expression was analyzed as described above (designated as “Aβ+M” in FIGS. 2 to 8).
(§6) Except that Sample 3 was used instead of Sample 1, gene expression was analyzed as described above (designated as “Aβ+M3G” in FIGS. 2 to 8).
(§7) 24 h after seeding 100 mm-cell dishes (BD Biocoat) with SH-SY5Y cells, the culture medium was completely removed with an aspirator, 10 mL of culture medium Opti-MEM(Gibco) mixed with Sample 1 was added to each dish, the cells were cultured for 24 h at 37° C. and 5% CO2, and RNA was extracted. Except for performing the procedure described above, gene expression was analyzed as described above (designated as “M3,5G” in FIGS. 2 to 8).

Assay [2] has as its system PARP1 (poly(ADP-ribose) polymerase 1). Kind of assay: Gene expression experiment (real-time PCR) in SH-SY5Y cells: PARP1. The settings on record: 12.56 μM, amyloid β protein-treated cells, 24 h; compared to “Aβ”. Here is the method:
as §1, §2, §3, §4, §5
(§8) Except that Sample 3 was used instead of Sample 1, gene expression was analyzed as described above (designated as “Aβ+M3G” in FIGS. 2 to 8). […]

Assay [3] relates to PI3KCA (phosphatidylinositol-4,5-bisphosphate 3-kinase catalyst subunit α). Kind of assay: Gene expression experiment (real-time PCR) in SH-SY5Y cells: PI3KCA. Particulars: 12.56 μM, amyloid β protein-treated cells, 24 h; compared to “Aβ”. Here is the method: as §1, §2, §3, §4, §5, §6, §7
On the technique in general: Real-time PCR tracks product formation cycle by cycle.

Assay [4] relates to MAP2K4 (mitogen-activated protein kinase 4). Kind of assay: Gene expression experiment (real-time PCR) in SH-SY5Y cells: MAP2K4. The settings on record: 12.56 μM, amyloid β protein-treated cells, 24 h; compared to “Aβ”. Here is the method:
as §1, §2, §3, §4, §5, §6, §7

In assay [5] the test system is MAPK14 (mitogen-activated protein kinase 14). Kind of assay: Gene expression experiment (real-time PCR) in SH-SY5Y cells: MAPK14. The settings on record: 12.56 μM, amyloid β protein-treated cells, 24 h; compared to “Aβ”. Here is the method:
as §1, §2, §3, §4, §5, §8

Another assay concerns CASP3 (caspase-3). Kind of assay: Gene expression experiment (real-time PCR) in SH-SY5Y cells: CASP3. Particulars: 12.56 μM, amyloid β protein-treated cells, 24 h; compared to “Aβ”. Here is the method:
as §1, §2, §3, §4, §5, §6, §7

The next assay deals with SH-SY5Y cells. Kind of assay: Cell survival experiment (MTT), cell death induced by amyloid β protein. The settings on record: compound 12.56 μM, 72 h, compared to “Aβ”. Here is the method: Each well of a 96-well plate (BD Biocoat) was seeded with SH-SY5Y cells (model of neuronal cells, ATCC) at a concentration of 2×10^5 cells/mL (100 μL/well) and the cells were cultured at 37° C. and 5% CO2 for 24 h. Culture medium used was F12/DMEM (Gibco) supplemented with 1% non-essential amino acids (Gibco), 15% FBS (Bio West), and 1% penicillin/streptomycin (Lonza).
After 24 h, the culture medium was completely removed with an aspirator, 100 μL of culture medium Opti-MEM (Gibco) was added to each well, and the cells were cultured at 37° C. and 5% CO2 for 24 h. […]
Absorbance at 570 nm was measured on a microplate reader (Sumitomo Dainippon Pharma) to measure the MTT formazan production to calculate % relative cell survival (designated as “Control” in FIG. 1).
24 h after seeding a 96-well plate (BD Biocoat) with SH-SY5Y cells, the culture medium was completely removed with an aspirator, amyloid β protein (Beta-Amyloid 1-42, AnaSpec) was mixed with Opti-MEM (Gibco) so that the final concentration was 15 μM, 100 μL of the mixture was added to each well, and the cells were cultured at 37° C. and 5% CO2 for 72 h to induce cell death. Except for performing the procedure described above, the MTT formazan production was measured as described above to calculate % relative cell survival (designated as “Aβ” in FIG. 1). […]

Assay [6] deals with MAPK8 (mitogen-activated protein kinase 8). Kind of assay: Gene expression experiment (real-time PCR) in SH-SY5Y cells: MAPK8. Particulars: 12.56 μM, amyloid β protein-treated cells, 24 h; compared to “Aβ”. Here is the method: as §1, §2, §3, §4, §5, §8

The values below come from patent US20220241308A1, “NEURONAL FUNCTION MODULATING AGENT” (University of Tsukuba, priority 2019, published 2022).

`COc1cc(-c2[o+]c3cc(O)cc(O)c3cc2O[C@@H]2O[C@H](CO)[C@@H](O)[C@H](O)[C@H]2O)cc(OC)c1O.[Cl-]` [malvidin-3-glucoside, Malvidin-3-glucoside chloride, reference compound]: in assay [1], the “expression of AKT1” value is “increase”. Also, in assay [2], the “expression of PARP1” value is “increase”. The “expression of PI3KCA” value in assay [3] is “increase”. Further, in assay [4], the “expression of MAP2K4” value is “increase”. In addition, the “expression of MAPK14” value in assay [5] is given as “increase”.

As for `COc1cc(-c2[o+]c3cc(O)cc(O)c3cc2O)cc(OC)c1O` [malvidin, Malvidin chloride, reference compound], the “expression of CASP3” value in the assay with CASP3 (caspase-3) is on record as “decrease”. Further, in the assay with SH-SY5Y cells, the “% relative cell survival” value is “Inhibition of cell death was also confirmed”. The “expression of AKT1” value in assay [1] is listed as “increase”. Moreover, the “expression of PARP1” value in assay [2] is listed as “increase”. In addition, the “expression of PI3KCA” value in assay [3] is “increase”. In assay [4], the “expression of MAP2K4” value is “increase”. In addition, the “expression of MAPK14” value in assay [5] was “increase”. Besides, in assay [6], the “expression of MAPK8” value was “increase”.
